The text below walks through data of publication PMC12700101 (2025).

What all share (experiment): fluorescence titration (intramolecular strand displacement)
Holding throughout (settings): 6 mM MgCl2; apparent; 10 mM Tris-HCl pH 7.5, 25 °C

For test [1], the system named is 25-7 ATP ISD FAM–BHQ-1 (DNA, aptamer) CACCTGGGGGAGTATTGCGGAGGAAGGTTTTTCCAGGTG
For test [2], the system named is 25-7 ATP ISD FAM–Dab (DNA, aptamer, dabcyl-5-methyl-dC at 40 (3' end)) CACCTGGGGGAGTATTGCGGAGGAAGGTTTTTCCAGGTGC
The subject of test [3] is 25-7 ATP ISD Cy3–Dab (DNA, aptamer, dabcyl-5-methyl-dC at 40 (3' end)) CACCTGGGGGAGTATTGCGGAGGAAGGTTTTTCCAGGTGC
The subject of test [4] is 25-7 ATP ISD Cy3–BHQ-1 (DNA, aptamer) CACCTGGGGGAGTATTGCGGAGGAAGGTTTTTCCAGGTG

As to `Nc1ncnc2c1ncn2[C@@H]1O[C@H](COP(=O)(O)OP(=O)(O)OP(=O)(O)O)[C@@H](O)[C@H]1O`, the Kd is 1800 ± 1700 µM in test [1], 1300 ± 600 µM in test [2], 390 ± 83 µM in test [3] and 460 ± 65 µM in test [4].
